What all share (assay): NCI-60 cell line screen, 48 h
In assay [1] the test system is HOP-92 NSCLC.
Assay [2] concerns NCI-H460 lung.
For assay [3], the system named is MOLT-4 leukemia.
Assay [4] has as its system NCI-H23 lung.
In assay [5] the test system is A549 NSCLC.
In assay [6] the test system is SNB-19 CNS.
Assay [7] deals with SN12C renal.
In assay [8] the test system is UACC-62 melanoma.
Assay [9] has as its system U251 CNS.
Assay [10] deals with HL-60(TB) leukemia.

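Dose response: 5 concentrations. Exposure: 48 h. Format: 96-well plates. Endpoint: linear interpolation; highest concentration if not reached. Here, GI50 denotes the concentration required for 50% inhibition of growth. Definition used: TGI = concentration required for complete inhibition of growth.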

Consider `Cc1cc(C)nc(/C(=N\NC(N)=O)C(=O)Nc2nc3ccc(C)cc3s2)c1`, for which the TGI in [1], in assay [2], in assay [3], in assay [4], in [5] and in [6] was greater than 100 µM throughout. Also, the TGI in assay [7], in [8], in assay [9] and in assay [10] was greater than 100 µM each time.
As for `C[Si](C)(C)C(CCCCSc1ccccc1)(Sc1ccccc1)Sc1ccccc1`, the TGI in [1], in [2], in assay [3], in assay [4], in [5] and in [6] was greater than 100 µM in each case. Further, the TGI in assay [7], in assay [8], in [9] and in assay [10] was greater than 100 µM throughout.
Regarding `O=[N+]([O-])c1nccn1CC(O)CN1CCCCC1` (stereo not drawn), the TGI in assay [1], in [2], in assay [3], in assay [4], in assay [5] and in assay [6] was greater than 100 µM each time. The TGI in assay [7], in assay [8], in assay [9] and in assay [10] was greater than 100 µM throughout.
On to `CCc1cccc(C)c1N1C(=O)C(=O)C(c2nc3ccccc3o2)C(=O)C1=O`, for which the TGI in [1], in assay [2], in assay [3], in assay [4], in [5] and in [6] was greater than 100 µM each time. Further, the TGI in assay [7], in [8], in assay [9] and in assay [10] was greater than 100 µM in each case.
As to `O=C(/C=C/c1ccc(O)c(O)c1)NCc1c[nH]c2ccccc12`, the GI50 in [1] is greater than 100 µM; in assay [2] it was 50.1 µM; in assay [3] it was 25.8 µM; in assay [4], 85.8 µM; in assay [5], greater than 100 µM; in assay [6], greater than 100 µM. In addition, the GI50 is 28.4 µM in [7], 80.6 µM in assay [8], 74 µM in assay [9] and 70 µM in [10]. In addition, the TGI in [1], in assay [2], in assay [3], in assay [4], in assay [5] and in assay [6] was greater than 100 µM in each case. Besides, the TGI was 84.7 µM in assay [7], greater than 100 µM in assay [8], greater than 100 µM in [9] and greater than 100 µM in assay [10].
In the case of `CC[C@@]1(OC(=O)CN)C(=O)OCc2c1cc1n(c2=O)Cc2c-1nc1cc3c(cc1c2CCl)OCO3`, the GI50 in assay [1] was 0.0724 µM; in assay [2] it was less than 0.01 µM; in assay [3], less than 0.01 µM; in [4], less than 0.01 µM; in assay [5], 0.0201 µM; in assay [6], less than 0.01 µM. Besides, the GI50 in assay [7] is less than 0.0117 µM; in assay [8], less than 0.01 µM; in assay [9] it was 0.0185 µM; in assay [10], less than 0.01 µM. In addition, the TGI in [1] is 7.13 µM; in assay [2], 4.44 µM; in assay [4], 0.0885 µM; in [5] it was greater than 100 µM; in assay [6], 13.7 µM; in [7], 3.76 µM. Besides, the TGI was 2.28 µM in [8] and greater than 42.9 µM in assay [9].
For the molecule `Cn1c(=O)c2[nH]c(SCCN3CCOCC3)nc2n(C)c1=S`, the TGI in assay [1], in assay [2], in assay [3], in assay [4], in assay [5] and in assay [6] was greater than 100 µM throughout. Besides, the TGI in assay [7], in assay [8], in [9] and in [10] was greater than 100 µM each time.
On to `CN1CCN(Cc2ccc(NC(=O)c3cncc(C#Cc4cnc(N)cc4C#N)c3)cc2C(F)(F)F)CC1`, for which the GI50 is 0.906 µM in assay [1]; 2.66 µM in assay [2]; 1.86 µM in [3]; 2.24 µM in [4]; 3.89 µM in assay [5]; 6.27 µM in assay [6]. The GI50 in assay [7] was 2.46 µM; in [8], 0.877 µM; in [9], 4.45 µM; in [10], 0.768 µM. Moreover, the TGI is 4.44 µM in assay [1]; 12.7 µM in assay [2]; 22.3 µM in assay [3]; 13.7 µM in [4]; 15.4 µM in assay [5]; 18.9 µM in [6]. The TGI in assay [7] was 10.7 µM; in [8], 3.92 µM; in [9] it was 19.1 µM; in [10], 3.58 µM.
As for `CCC(C)Oc1nc2c(c(=O)n(C)c(=O)n2C)n1C` (stereo not drawn), the GI50 in [1], in assay [2], in assay [3], in assay [4], in assay [5] and in assay [6] was greater than 100 µM each time. In addition, the GI50 in assay [7], in [8], in assay [9] and in assay [10] was greater than 100 µM in each case. For the same molecule, the TGI in assay [1], in [2], in [3], in [4], in [5] and in assay [6] was greater than 100 µM in each case. For the same molecule, the TGI in assay [7], in assay [8], in [9] and in assay [10] was greater than 100 µM each time.

Source of the values: PubChem BioAssay (NCI).
